Structures can show the parent of a compound that is named as a salt.

The test system of the first assay is Acinetobacter baumannii ATCC17961. In words: Antimicrobial susceptibility testing: 90% growth inhibitory concentration (IC90) determination in Iso-Sensitest broth, OD600 growth. The format is cell-based. The following applies: Acinetobacter baumannii, ATCC17961, 16 h, read-out: A. baumannii ATCC 17961 IC90 (uM), strain ATCC 17961, OD600 growth over 16 h. The protocol: Antimicrobial Susceptibility Testing:
90% Growth Inhibitory Concentration (IC90) Determination
The in vitro antimicrobial activity of the compounds was determined according to the following procedure:
The assay used a 10-points Iso-Sensitest broth medium to measure quantitatively the in vitro activity of the compounds against Acinetobacter baumannii ATCC17961 or ATCC17968.
Stock compounds in DMSO were serially twofold diluted (e.g. range from 50 to 0.097 μM final concentration) in 384 wells microtiter plates and inoculated with 49 μl the bacterial suspension in Iso-Sensitest medium to have a final cell concentration of ˜5×10^(5) CFU/ml in a final volume/well of 50 ul/well. Microtiter plates were incubated at 35±2° C.
Bacterial cell growth was determined with the measurement of optical density at λ=600 nm each 20 minutes over a time course of 16 h. Growth inhibition was calculated during the logarithmic growth of the bacterial cells with determination of the concentration inhibiting 50% (IC50) and 90% (IC90) of the growth.
Table 7 provides the 90% growth inhibitory concentrations (IC90) in micromoles per liter of the compounds of present invention obtained against the strain Acinetobacter baumannii ATCC17961 and/or ATCC17968.
With `Cc1cc(Nc2nccn3c(-c4c[nH]nc4C(F)(F)F)cnc23)ccc1C(=O)N1CCN(C(=O)[C@@H]2C[C@](C)(O)CN2)CC1` [Example 462, formic acid; [4-[(2S,4S)-4-hydroxy-4-methylpyrrolidine-2-carbonyl]piperazin-1-yl]-[2-methyl-4-[[3-[3-(trifluoromethyl)-1H-pyrazol-4-yl]imidazo[1,2-a]pyrazin-8-yl]amino]phenyl]methanone], the IC90 worked out at 0.964 µM.
In the case of `CCc1cc(Nc2nccn3c(-c4c[nH]nc4C(F)(F)F)cnc23)ccc1C(=O)NC1CC2(CNC2)C1` [Example 514, 2-ethyl-N-(2-azaspiro[3.3]heptan-6-yl)-4-((3-(3-(trifluoromethyl)-1H-pyrazol-4-yl)imidazo[1,2-a]pyrazin-8-yl)amino)benzamide formate], the concentration for an effect of 90% (IC90) is 0.803 µM.
Consider `CCc1cc(Nc2nccn3c(-c4c[nH]nc4C(F)(F)F)cnc23)ccc1C(=O)NCCNC(=O)[C@@H](N)CCCCN` [Example 221, N-[2-[[(2S)-2,6-diaminohexanoyl]amino]ethyl]-2-ethyl-4-[[3-[3-(trifluoromethyl)-1H-pyrazol-4-yl]imidazo[1,2-a]pyrazin-8-yl]amino]benzamide formate], for which the IC90 was 0.922 µM.
As for `CCc1cc(Nc2nccn3c(-c4c[nH]nc4C(F)(F)F)cnc23)ccc1C(=O)NCCCNC(=O)CCCN` [Example 215, N-[3-(4-aminobutanoylamino)propyl]-2-ethyl-4-[[3-[3-(trifluoromethyl)-1H-pyrazol-4-yl]imidazo[1,2-a]pyrazin-8-yl]amino]benzamide formate], the IC90 came to 0.394 µM.
On to `Cc1cc(Nc2nccn3c(-c4cn(CC#N)nc4C(F)(F)F)cnc23)ccc1C(=O)N1CCN(C(=O)[C@H]2CCNC[C@@H]2O)CC1` [Example 382, formic acid; 2-[4-[8-[4-[4-[(3R,4S)-3-hydroxypiperidine-4-carbonyl]piperazine-1-carbonyl]-3-methylanilino]imidazo[1,2-a]pyrazin-3-yl]-3-(trifluoromethyl)pyrazol-1-yl]acetonitrile], for which the IC90 worked out at 0.749 µM.
On the same count and under the same terms, for `C[C@@H](NC(=O)c1ccc(Nc2nccn3c(-c4c[nH]nc4C(F)(F)F)cnc23)cc1Cl)C(=O)N1CCNCC1` [Example 91, 2-chloro-N-[(2R)-1-oxo-1-piperazin-1-ylpropan-2-yl]-4-[[3-[3-(trifluoromethyl)-1H-pyrazol-4-yl]imidazo[1,2-a]pyrazin-8-yl]amino]benzamide formate] the value was 0.645 µM.

The assay is the same for the next values; noted with them: Acinetobacter baumannii, ATCC17961, 16 h, strain ATCC 17961, OD600 growth over 16 h, read-out: A. baumannii ATCC 17961 IC90.
As to `C#CCn1cc(-c2cnc3c(Nc4ccc(C(=O)N5CCN(C(=O)[C@@H]6C[C@@H](O)CN6)CC5)c(CC)c4)nccn23)c(C(F)F)n1` [Example 785, (4-(4-((3-(3-(difluoromethyl)-1-(prop-2-yn-1-yl)-1H-pyrazol-4-yl)imidazo[1,2-a]pyrazin-8-yl)amino)-2-ethylbenzoyl)piperazin-1-yl)((2S,4R)-4-hydroxypyrrolidin-2-yl)methanone], the IC90 was found to be 1.32 µM.
Still for that read-out and setting: for `Cc1cc(Nc2nccn3c(-c4cn(CC#N)nc4C(F)(F)F)cnc23)ccc1C(=O)N[C@H](C)C(=O)N[C@@H]1CCNC1` [Example 746, 4-[[3-[1-(cyanomethyl)-3-(trifluoromethyl)pyrazol-4-yl]imidazo[1,2-a]pyrazin-8-yl]amino]-2-methyl-N-[(1R)-1-methyl-2-oxo-2-[[(3R)-pyrrolidin-3-yl]amino]ethyl] benzamide formate] the value was 0.581 µM.
On to `NC1CN(C(=O)CNC(=O)c2ccc(Nc3nccn4c(-c5c[nH]nc5C(F)(F)F)cnc34)cc2Cl)C1` [Example 141, N-[2-(3-aminoazetidin-1-yl)-2-oxoethyl]-2-chloro-4-[[3-[3-(trifluoromethyl)-1H-pyrazol-4-yl]imidazo[1,2-a]pyrazin-8-yl]amino]benzamide], for which the IC90 is 4.05 µM.
`CCc1cc(Nc2nccn3c(-c4cn(CC#N)nc4C(F)(F)F)cnc23)ccc1C(=O)NCCNC(=O)[C@@H]1CC[C@H](N)C1` [Example 494, N-(2-((1R,3S)-3-aminocyclopentane-1-carboxamido)ethyl)-4-((3-(1-(cyanomethyl)-3-(trifluoromethyl)-1H-pyrazol-4-yl)imidazo[1,2-a]pyrazin-8-yl)amino)-2-ethylbenzamide formate]: the IC90 amounted to 0.157 µM.
For the molecule `CCc1cc(Nc2nccn3c(-c4cn(CCN5CCCC5)nc4C(F)(F)F)cnc23)ccc1C(=O)NCCOCCN` [Example 269, N-[2-(2-aminoethoxy)ethyl]-2-ethyl-4-[[3-[1-(2-pyrrolidin-1-ylethyl)-3-(trifluoromethyl)pyrazol-4-yl]imidazo[1,2-a]pyrazin-8-yl]amino]benzamide], the IC90 is 1.39 µM.
Still for that read-out and setting: in the case of `CNC(=O)c1ccc(Nc2nccn3c(-c4cn(CC(F)F)nc4C(F)(F)F)cnc23)cc1Cl` [Example 124, 2-chloro-4-[[3-[1-(2,2-difluoroethyl)-3-(trifluoromethyl)pyrazol-4-yl]imidazo[1,2-a]pyrazin-8-yl]amino]-N-methylbenzamide] it was 0.121 µM.
Still for that read-out and setting: in the case of `CCc1cc(Nc2nccn3c(-c4cn(CC(F)F)nc4C(F)(F)F)cnc23)ccc1C(=O)NCCCNC(=O)[C@@H]1C[C@@H](O)CN1` [Example 727, (2S,4R)-N-(3-(4-((3-(1-(2,2-difluoroethyl)-3-(trifluoromethyl)-1H-pyrazol-4-yl)imidazo[1,2-a]pyrazin-8-yl)amino)-2-ethylbenzamido)propyl)-4-hydroxypyrrolidine-2-carboxamide] it was 0.465 µM.
On the same count and under the same terms, for `CCc1cc(Nc2nccn3c(-c4cn(CC(F)F)nc4C(F)(F)F)cnc23)ccc1C(=O)N[C@H](C)CNC(=O)[C@@H]1C[C@@H](O)CN1` [Example 684, (2S,4R)-N-((R)-2-(4-((3-(1-(2,2-difluoroethyl)-3-(trifluoromethyl)-1H-pyrazol-4-yl)imidazo[1,2-a]pyrazin-8-yl)amino)-2-ethylbenzamido)propyl)-4-hydroxypyrrolidine-2-carboxamide] the value was 0.34 µM.
Take `C=CCn1cc(-c2cnc3c(Nc4ccc(C(=O)N5CCC(CN)CC5)c(CC)c4)nccn23)c(C(F)(F)F)n1` [Example 53, [4-(aminomethyl)piperidin-1-yl]-[2-ethyl-4-[[3-[1-prop-2-enyl-3-(trifluoromethyl)pyrazol-4-yl]imidazo[1,2-a]pyrazin-8-yl]amino]phenyl] methanone]: the IC90 was found to be 0.157 µM.
As to `CCc1cc(Nc2nccn3c(-c4c[nH]nc4C(F)(F)F)cnc23)ccc1C(=O)N1CCC(CN)CC1` [Example 372, [4-(aminomethyl)piperidin-1-yl]-[2-ethyl-4-[[3-[3-(trifluoromethyl)-1H-pyrazol-4-yl]imidazo[1,2-a]pyrazin-8-yl]amino]phenyl]methanone hydrochloride], the IC90 turned out to be 0.957 µM.
Still for that read-out and setting: in the case of `CCc1cc(Nc2nccn3c(-c4cn(CC#N)nc4C(F)(F)F)cnc23)ccc1C(=O)NCCNC(=O)[C@H]1C[C@H](N)C1` [Example 487, N-(2-((1r,3r)-3-aminocyclobutane-1-carboxamido)ethyl)-4-((3-(1-(cyanomethyl)-3-(trifluoromethyl)-1H-pyrazol-4-yl)imidazo[1,2-a]pyrazin-8-yl)amino)-2-ethylbenzamide formate] it was 0.171 µM; in that of `Cc1cc(Nc2nccn3c(-c4cn(CC(F)F)nc4C(F)(F)F)cnc23)ccc1C(=O)NCCOCCN` [Example 254, N-[2-(2-aminoethoxy)ethyl]-4-[[3-[1-(2,2-difluoroethyl)-3-(trifluoromethyl)pyrazol-4-yl]imidazo[1,2-a]pyrazin-8-yl]amino]-2-methylbenzamide], 0.222 µM.
On the same count and under the same terms, for `CCc1cc(Nc2nccn3c(-c4cn(C)nc4C(F)(F)F)cnc23)ccc1C(=O)NCCCNC(=O)[C@@H]1C[C@@H](O)CN1` [Example 437, (2S,4R)-N-[3-[[2-ethyl-4-[[3-[1-methyl-3-(trifluoromethyl)pyrazol-4-yl]imidazo[1,2-a]pyrazin-8-yl]amino]benzoyl]amino]propyl]-4-hydroxypyrrolidine-2-carboxamide] the value was 1.02 µM.

The same assay, now with this note: strain ATCC 17961, OD600 growth over 16 h, read-out: A. baumannii ATCC 17961 IC90.
Turning to `CCc1cc(Nc2nccn3c(-c4c(C(F)(F)F)n[nH]c4C)cnc23)ccc1C(=O)NCCOCCN` [Example 24, N-[2-(2-aminoethoxy)ethyl]-2-ethyl-4-[[3-[5-methyl-3-(trifluoromethyl)-1H-pyrazol-4-yl]imidazo[1,2-a]pyrazin-8-yl]amino] benzamide formate], the IC90 is 0.523 µM.
Same read-out and setting: for `NCCOCCNC(=O)c1ccc(Nc2nccn3c(-c4cn(CC(F)F)nc4C(F)(F)F)cnc23)cc1Cl` [Example 252, N-[2-(2-aminoethoxy)ethyl]-2-chloro-4-[[3-[1-(2,2-difluoroethyl)-3-(trifluoromethyl)pyrazol-4-yl]imidazo[1,2-a]pyrazin-8-yl]amino] benzamide] the value was 0.169 µM.
Still for that read-out and setting: in the case of `N[C@@H]1CC[C@H](NC(=O)N2CCN(C(=O)c3ccc(Nc4nccn5c(-c6c[nH]nc6C(F)(F)F)cnc45)cc3Cl)CC2)C1` [Example 233, N-[(1S,3R)-3-aminocyclopentyl]-4-[2-chloro-4-[[3-[3-(trifluoromethyl)-1H-pyrazol-4-yl]imidazo[1,2-a]pyrazin-8-yl]amino]benzoyl] piperazine-1-carboxamide formate] it was 0.169 µM.

Source of the values: US20230203043A1, “NOVEL IMIDAZOPYRAZINE DERIVATIVES” (Hoffmann-La Roche Inc., priority 2020, published 2023).
